From patent publication US10149839B2, “Chemical compounds” (AstraZeneca AB, priority 2016, dated 2018)
In brackets after ≈: the same amount, converted by molar mass.

How the values were obtained:
[1] = target: T1, Estrogen Receptor (ERα) in MCF-7 cells (Homo sapiens (Human), UniProt P03372); assay: MCF-7 ER down-regulation assay (immuno-fluorescence); type: cell-based; conditions: for IC50: 18-22 hours incubation
[2] = target: estrogen receptor (ERα) in CAMA-1 cells (Homo sapiens (Human), UniProt P03372); assay: Western blotting assay, CAMA-1 cells; type: cell-based; conditions: compound 100 nM, 48 h, normalised to 100 nM fulvestrant (100%)
[3] = target: T1, Estrogen Receptor (ERα) in MCF-7 cells; assay: Western blotting assay, MCF-7 cells; type: cell-based; conditions: compound 100 nM, 48 h, normalised to 100 nM fulvestrant (100%)
[4] = Thermodynamic solubility (shake flask); type: physicochemical; conditions: aqueous phosphate buffer, 25 °C, pH 7.4, aqueous buffer, thermodynamic from solid, aqueous phosphate buffer pH 7.4, 24 hours
[5] = Human plasma protein binding (equilibrium dialysis); type: in vitro ADME; conditions: dialysis 18 hours
[6] = physchem; conditions: 1-octanol/aqueous buffer, pH 7.4

T1 sequence (P03372 whole entry): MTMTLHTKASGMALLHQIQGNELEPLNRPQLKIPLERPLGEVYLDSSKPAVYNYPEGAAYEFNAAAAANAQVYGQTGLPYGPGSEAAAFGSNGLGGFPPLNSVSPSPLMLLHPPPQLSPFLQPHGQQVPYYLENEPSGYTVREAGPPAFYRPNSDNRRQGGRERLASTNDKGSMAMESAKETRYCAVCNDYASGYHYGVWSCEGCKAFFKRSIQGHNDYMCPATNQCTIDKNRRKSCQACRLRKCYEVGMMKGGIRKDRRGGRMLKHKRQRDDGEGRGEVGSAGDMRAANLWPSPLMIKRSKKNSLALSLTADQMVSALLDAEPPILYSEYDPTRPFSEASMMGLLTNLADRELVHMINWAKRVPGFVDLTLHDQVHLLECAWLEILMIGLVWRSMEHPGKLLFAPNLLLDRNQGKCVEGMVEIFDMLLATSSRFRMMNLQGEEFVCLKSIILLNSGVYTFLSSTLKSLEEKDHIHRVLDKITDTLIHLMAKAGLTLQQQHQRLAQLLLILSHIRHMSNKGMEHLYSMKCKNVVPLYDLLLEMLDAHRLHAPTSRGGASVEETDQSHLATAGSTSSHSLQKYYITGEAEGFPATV
Sequence of estrogen receptor (ERα) in CAMA-1 cells (P03372 whole entry): as above

SMILES	IC50 [1]	CAMA1 Western % ER deg vs Fv [2]	MCF7 Western % ER deg vs Fv [3]	solubility at 24 h [4]	Human plasma protein binding (% free) [5]	logD [6]	% downregulation ([1]; shown in brackets where not >90%)
C[C@@H]1Cc2c([nH]c3ccccc23)[C@@H](c2c(F)cc(OCCNCCC(F)F)cc2F)N1CC(C)(C)F [Example 3, N-(2-(3,5-difluoro-4-((1R,3R)-2-(2-fluoro-2-methylpropyl)-3-methyl-2,3,4,9-tetrahydro-1H-pyrido[3,4-b]indol-1-yl)phenoxy)ethyl)-3,3-difluoropropan-1-amine]	0.14 nM	0%	64%	4 µM (≈ 2.04 µg/mL)	<2.6 % free	> 4.3	
COc1cc(OCCNCCCF)ncc1[C@@H]1c2[nH]c3ccccc3c2C[C@@H](C)N1CC1(F)COC1 [Example 7, 3-fluoro-N-(2-((5-((1R,3R)-2-((3-fluorooxetan-3-yl)methyl)-3-methyl-2,3,4,9-tetrahydro-1H-pyrido[3,4-b]indol-1-yl)-4-methoxypyridin-2-yl)oxy)ethyl)propan-1-amine]	0.51 nM	48%	74%	> 1000 µM	17 % free	2.3	
COc1cc(OCCNCCCF)ccc1[C@@H]1c2[nH]c3ccccc3c2C[C@@H](C)N1CC1(F)COC1 [Example 8, 3-fluoro-N-(2-(4-((1R,3R)-2-((3-fluorooxetan-3-yl)methyl)-3-methyl-2,3,4,9-tetrahydro-1H-pyrido[3,4-b]indol-1-yl)-3-methoxyphenoxy)ethyl)propan-1-amine]		38%	77%				
C[C@@H]1Cc2c([nH]c3ccccc23)[C@@H](c2c(F)cc(NCCNCCCF)cc2F)N1CC1(F)CC1 [Example 9, N^1-(3,5-difluoro-4-((1R,3R)-2-((1-fluorocyclopropyl)methyl)-3-methyl-2,3,4,9-tetrahydro-1H-pyrido[3,4-b]indol-1-yl)phenyl)-N^2-(3-fluoropropyl)ethane-1,2-diamine]	0.22 nM	80%	82%				
COc1cc(OCCNCCCF)ccc1[C@@H]1c2[nH]c3ccccc3c2C[C@@H](C)N1CC1(F)CC1 [Example 11, 3-fluoro-N-(2-(4-((1R,3R)-2-((1-fluorocyclopropyl)methyl)-3-methyl-2,3,4,9-tetrahydro-1H-pyrido[3,4-b]indol-1-yl)-3-methoxyphenoxy)ethyl)propan-1-amine]	0.46 nM	54%	81%				
COCC(F)(F)CN1[C@H](c2c(F)cc(OCCNCCCF)cc2F)c2[nH]c3ccccc3c2C[C@H]1C [Example 14, N-(2-(4-((1R,3R)-2-(2,2-difluoro-3-methoxypropyl)-3-methyl-2,3,4,9-tetrahydro-1H-pyrido[3,4-b]indol-1-yl)-3,5-difluorophenoxy)ethyl)-3-fluoropropan-1-amine]	0.64 nM	31%	61%	10 µM (≈ 5.26 µg/mL)	0.9 % free	3.6	(89%)
COc1cc(OCCNCCCF)cnc1[C@@H]1c2[nH]c3ccccc3c2C[C@@H](C)N1CC(C)(C)F [Example 35, 3-fluoro-N-(2-((6-((1S,3R)-2-(2-fluoro-2-methylpropyl)-3-methyl-2,3,4,9-tetrahydro-1H-pyrido[3,4-b]indol-1-yl)-5-methoxypyridin-3-yl)oxy)ethyl)propan-1-amine]	0.28 nM	82%	81%	99 µM (≈ 48.2 µg/mL)	2.2 % free	3.8	
COc1cc(OCCNCCCF)ncc1[C@@H]1c2[nH]c3ccccc3c2C[C@@H](C)N1CC(C)(C)F [Example 36, 3-fluoro-N-(2-((5-((1R,3R)-2-(2-fluoro-2-methylpropyl)-3-methyl-2,3,4,9-tetrahydro-1H-pyrido[3,4-b]indol-1-yl)-4-methoxypyridin-2-yl)oxy)ethyl)propan-1-amine]	0.14 nM	66%	83%	291 µM (≈ 142 µg/mL)	2.1 % free	3.5	
C[C@@H]1Cc2c([nH]c3ccccc23)[C@@H](c2cnc(OCCNCCCF)cn2)N1CC(C)(C)F [Example 38, 3-fluoro-N-(2-((5-((1S,3R)-2-(2-fluoro-2-methylpropyl)-3-methyl-2,3,4,9-tetrahydro-1H-pyrido[3,4-b]indol-1-yl)pyrazin-2-yl)oxy)ethyl)propan-1-amine]	0.43 nM	75%	88%	227 µM (≈ 104 µg/mL)	1.3 % free	3.3	

Continued, values first:

IC50 [1]	CAMA1 Western % ER deg vs Fv [2]	MCF7 Western % ER deg vs Fv [3]	solubility at 24 h [4]	Human plasma protein binding (% free) [5]	logD [6]	% downregulation ([1]; shown in brackets where not >90%)	SMILES
0.14 nM	89%	74%	389 µM (≈ 192 µg/mL)	2.4 % free	3.2		COc1cc(OCCNCCCF)ncc1[C@@H]1c2[nH]c3ccccc3c2C[C@@H](C)N1CC(F)(F)F [Example 41, 3-Fluoro-N-(2-((4-methoxy-5-((1R,3R)-3-methyl-2-(2,2,2-trifluoroethyl)-2,3,4,9-tetrahydro-1H-pyrido[3,4-b]indol-1-yl)pyridin-2-yl)oxy)ethyl)propan-1-amine]
0.079 nM	76%	90%	220 µM (≈ 108 µg/mL)	1.6 % free	3.3		COc1cc(OCCNCCCF)ncc1[C@@H]1c2[nH]c3ccccc3c2C[C@@H](C)N1CC(C)(F)F [Example 42, N-(2-((5-((1R,3R)-2-(2,2-Difluoropropyl)-3-methyl-2,3,4,9-tetrahydro-1H-pyrido[3,4-b]indol-1-yl)-4-methoxypyridin-2-yl)oxy)ethyl)-3-fluoropropan-1-amine]
0.17 nM	90%	85%	577 µM (≈ 291 µg/mL)	2.3 % free	3.1		C[C@@H]1Cc2c([nH]c3ccccc23)[C@@H](c2c(F)cc(NCCNCCCF)cc2F)N1CC1(F)COC1 [Example 44, N1-(3,5-difluoro-4-((1R,3R)-2-((3-fluorooxetan-3-yl)methyl)-3-methyl-2,3,4,9-tetrahydro-1H-pyrido[3,4-b]indol-1-yl)phenyl)-N2-(3-fluoropropyl)ethane-1,2-diamine]
0.31 nM	72%	97%	85 µM (≈ 42.7 µg/mL)	1.0 % free	3.5		C[C@@H]1Cc2c([nH]c3ccccc23)[C@@H](c2c(F)cc(N(C)CCNCCCF)cc2F)N1CC1(F)CC1 [Example 45, N1-(3,5-difluoro-4-((1R,3R)-2-((1-fluorocyclopropyl)methyl)-3-methyl-2,3,4,9-tetrahydro-1H-pyrido[3,4-b]indol-1-yl)phenyl)-N2-(3-fluoropropyl)-N1-methylethane-1,2-diamine]
0.093 nM	74%	88%	952 µM (≈ 486 µg/mL)	2.3 % free	2.6		C[C@@H]1Cc2c([nH]c3ccccc23)[C@@H](c2c(F)cc(NCCNCCCF)cc2F)N1CC(F)(F)CO [Example 46, 3-((1R,3R)-1-(2,6-difluoro-4-((2-((3-fluoropropyl)amino)ethyl)amino)phenyl)-3-methyl-1,3,4,9-tetrahydro-2H-pyrido[3,4-b]indol-2-yl)-2,2-difluoropropan-1-ol]
0.26 nM	65%	58%	94 µM (≈ 43.6 µg/mL)		3.4		C[C@@H]1Cc2c([nH]c3ccccc23)[C@@H](c2ccc(OCCNCCCF)cc2F)N1CC(F)F [Example 48, N-(2-(4-((1R,3R)-2-(2,2-difluoroethyl)-3-methyl-2,3,4,9-tetrahydro-1H-pyrido[3,4-b]indol-1-yl)-3-fluorophenoxy)ethyl)-3-fluoropropan-1-amine]
0.25 nM	95%	100%	70 µM (≈ 34.6 µg/mL)	0.40 % free			C[C@@H]1Cc2c([nH]c3ccccc23)[C@@H](c2c(F)cc(N(C)CCNCCCF)cc2F)N1CC(F)F [Example 49, N1-(4-((1R,3R)-2-(2,2-difluoroethyl)-3-methyl-2,3,4,9-tetrahydro-1H-pyrido[3,4-b]indol-1-yl)-3,5-difluorophenyl)-N2-(3-fluoropropyl)-N1-methylethane-1,2-diamine]
0.13 nM	92%	87%	242 µM (≈ 116 µg/mL)	1.3 % free			C[C@@H]1Cc2c([nH]c3ccccc23)[C@@H](c2c(F)cc(NCCNCCCF)cc2F)N1CC(F)F [Example 54, N1-(4-((1R,3R)-2-(2,2-difluoroethyl)-3-methyl-2,3,4,9-tetrahydro-1H-pyrido[3,4-b]indol-1-yl)-3,5-difluorophenyl)-N2-(3-fluoropropyl)ethane-1,2-diamine]
0.4 nM	66%	74%	184 µM (≈ 82 µg/mL)		3.3		C[C@@H]1Cc2c([nH]c3ccccc23)[C@@H](c2ccc(OCCNCCCF)cc2)N1CC(F)F [Example 56, N-(2-(4-((1R,3R)-2-(2,2-difluoroethyl)-3-methyl-2,3,4,9-tetrahydro-1H-pyrido[3,4-b]indol-1-yl)phenoxy)ethyl)-3-fluoropropan-1-amine]
